In paper PMC9779817, “Identification of New Purpuroine Analogues from the Arctic Echinodermata Pteraster militaris That Inhibit FLT3-ITD^+ AML Cell Lines” (International Journal of Molecular Sciences, 2022):
Values after ≈ are worked out from the molar mass of the structure shown.

Legend:
MV-4-11 = assay: Viability screening and IC50 determination, MTS assay; format: cell-based, human; design: key to Activity at ≤50 µM: Active: active compound was defined as ≤50% survival at one of the concentrations; Inactive; details: for Activity at ≤50 µM: MV-4-11, acute myeloid leukemia, screened at 10 and 50 µM, 72 h
Experimental: (§1) All cell lines were purchased from ATCC (Manassa, VA, USA) except MOLM-13 that was purchased from Leibniz Institute DSMZ (Braunschweig, Germany). Viability screening of compounds 1–3 at 10 and 50µM was performed by a colorimetric MTS assay. The cells were seeded into 96-well microtiter plates (Nunclon^TM Delta Surface, Thermo Scientific, Roskilde, Denmark) in RPMI-1640 supplemented with 10% FBS and 10µg/mL Gentamycin (assay media). The adherent cell lines A2058, HaCat and HT29 were seeded in a density of 2000 cells/well, MRC5 were seeded in a density of 4000 cells/well and SK-BR-3 and MDA-MB-468 were seeded in a density of 5000 cells/well. After incubation for 24 h in 37 °C and 5% CO2 the media was discarded and replaced by samples diluted in assay media, negative control (100% cell survival, 100% assay media) and positive control (0% cell survival, 90% assay media supplemented with 10% DMSO). The suspension cell lines MV-4-11 and MOLT-4 were directly seeded in a density of 10,000 cells/well and MOLM-13 and THP-1 were seeded in a density of 20,000 cells/well in assay media supplemented with sample. All samples were added in triplicates. Cells and samples were incubated for a total of 72 h (HepG2 cells were incubated for 24 h) at 37 °C and 5% CO2. Thereafter, 10% CellTiter 96®AQueous One Solution Reagent (G3581, Promega) containing tetrazolium compound [3-(4,5-dimethylthiazol-2-yl)-5-(3-carboxymethoxyphenyl)-2-(4-sulfophenyl)-2H-tetrazolium] and phenazine ethosulfate were added. After 1 h incubation the absorbances was measured at 485 nm with a DTX 880 and viability was calculated.

A2058 = assay: Viability screening, human melanoma cell line; format: cell-based; design: key: Active: active compound was defined as ≤50% survival at one of the concentrations; Inactive; details: screened at 10 and 50 µM, 72 h
Experimental: The flash fractions of P. militaris were assayed for activity against the human melanoma cancer cell line A2058 at 50 µg/mL. […] The flash fractions were also assayed against the human pathogenic bacterial strains Staphylococcus aureus, Enterococcus faecalis, Escherichia coli, Pseudomonas aeruginosa and Streptococcus agalactiae (Gr. B).
as §1

HT29 = assay: Viability screening, colorimetric MTS assay; format: cell-based; design: key: Active: active compound was defined as ≤50% survival at one of the concentrations; Inactive; details: HT29, colon cancer; screened at 10 and 50 µM; 72 h
Experimental: as §1

HaCat = assay: Viability screening, colorimetric MTS assay; format: cell-based; design: key: Active: active compound was defined as ≤50% survival at one of the concentrations; Inactive; details: keratinocytes (non-cancerous), screened at 10 and 50 µM, 72 h
Experimental: as §1

HepG2 = assay: Viability screening, colorimetric MTS assay; format: cell-based; design: key: Active: active compound was defined as ≤50% survival at one of the concentrations; Inactive; details: HepG2, liver hepatocellular carcinoma; screened at 10 and 50 µM; 24 h
Experimental: as §1

MDA-MB-468 = assay: Viability screening, colorimetric MTS assay; format: cell-based; design: key: Active: active compound was defined as ≤50% survival at one of the concentrations; Inactive; details: MDA-MB-468, breast cancer; screened at 10 and 50 µM; 72 h
Experimental: as §1

MOLT-4 = assay: Viability screening, colorimetric MTS assay; format: cell-based; design: key: Active: active compound was defined as ≤50% survival at one of the concentrations; Inactive; details: MOLT-4, acute lymphoblastic leukemia; screened at 10 and 50 µM; 72 h
Experimental: as §1

MRC5 = assay: Viability screening, colorimetric MTS assay; format: cell-based; design: key: Active: active compound was defined as ≤50% survival at one of the concentrations; Inactive; details: MRC5, lung fibroblasts (non-cancerous); screened at 10 and 50 µM; 72 h
Experimental: as §1

SK-BR-3 = assay: Viability screening, colorimetric MTS assay; format: cell-based; design: key: Active: active compound was defined as ≤50% survival at one of the concentrations; Inactive; details: SK-BR-3, breast cancer; screened at 10 and 50 µM; 72 h
Experimental: as §1

THP-1 = assay: Viability screening, colorimetric MTS assay; format: cell-based; design: key: Active: active compound was defined as ≤50% survival at one of the concentrations; Inactive; details: THP-1, acute monocytic leukemia; screened at 10 and 50 µM; 72 h
Experimental: as §1

MOLM-13 = assay: Viability screening, colorimetric MTS assay; format: cell-based, human; design: key: Active: active compound was defined as ≤50% survival at one of the concentrations; Inactive; details: MOLM-13, acute myeloid leukemia; screened at 10 and 50 µM; 72 h
Experimental: as §1

MV-4-11 cells [1] = assay: Cell cycle analysis (PI staining, flow cytometry); format: cell-based, human; details: 24 h, compared to control
Experimental: MV-4-11 cells were seeded into 24-well plates (Nunclon^TM Delta Surface, Thermo Scientific) in a density of 1 × 10^6 cells/mL supplemented with 26 µM, 52 µM or 104 µM of 1. The cells were incubated for 24 h and thereafter fixed in ice cold 70% EtOH. After washing the cells were stained with FxCycle™ PI/RNase Staining Solution (Invitrogen, MA, USA) according to manufacturer’s instructions. The cells were analysed by a CytoFLEX Flow cytometer (Beckman Coulter, CA, USA) and cell cycle phase determined in CytExpert software (Beckman Coulter).

MV-4-11 cells [2] = assay: Apoptosis assay (annexin V/PI staining, flow cytometry); format: cell-based, human; details: 26 µM (1 × IC50); 24 h
Experimental: To further investigate the cell death pathway activated by 1, an apoptosis assay was performed and the ability of 1 to induce apoptosis and/or necrosis in MV-4-11 cell line was evaluated by annexin V/PI staining (Figure 5). The cells were divided into 3 different populations: annexin V−/PI− (healthy cells), annexin V+/PI− (apoptotic cells) and annexin V+/PI+ (late apoptotic/necrotic cells). […] However, after 24 h and 48 h of incubation at the highest concentration of compound (104 µM), no increase in apoptotic cells were seen when compared to cells incubated with 52 µM.
MV-4-11 cells were seeded into 24-well plates (Nunclon^TM Delta Surface, Thermo Scientific) at a density of 1 × 10^6 cells/mL supplemented with 26 µM, 52 µM or 104 µM of 1 and incubated for 24 or 48 h at 37 °C an 5% CO2. Apoptotic and necrotic cells were labelled according to manufacturer’s instructions (Alexa Fluor^TM 488 Annexin V/Dead Cell Apoptosis Kit, Invitrogen) and analysed by a CytoFLEX Flow cytometer and CytExpert software (Beckman Coulter).

FLT3 WT = biological target: T1, FLT3 WT (Homo sapiens, UniProt P36888); assay: Kinase binding assay (FRET tracer competition); details: concentrations tested up to 10 μM
T1 construct: purchased ThermoFisher Scientific PV3182
T1 sequence (P36888 564-993 limits assumed): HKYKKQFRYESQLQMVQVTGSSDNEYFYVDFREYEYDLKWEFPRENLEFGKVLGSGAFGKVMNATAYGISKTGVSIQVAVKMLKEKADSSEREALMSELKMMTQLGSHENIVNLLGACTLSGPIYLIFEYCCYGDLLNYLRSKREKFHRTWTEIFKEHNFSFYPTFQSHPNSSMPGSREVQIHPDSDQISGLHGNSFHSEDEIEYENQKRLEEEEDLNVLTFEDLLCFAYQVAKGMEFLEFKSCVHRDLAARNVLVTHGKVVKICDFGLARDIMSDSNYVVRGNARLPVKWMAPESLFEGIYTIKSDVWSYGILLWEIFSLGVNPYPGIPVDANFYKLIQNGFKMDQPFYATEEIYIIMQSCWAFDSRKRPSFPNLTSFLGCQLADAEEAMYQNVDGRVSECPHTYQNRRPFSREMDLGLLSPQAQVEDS
Experimental: (§2) A FRET signal is generated between an Europium-labelled tag, on the FLT3 kinase, and a fluorescent tracer with high binding affinity for the FLT3 active site.
(§3) Anti-GST-Eu-tagged monoclonal antibodies (anti-GST AB) were purchase from Cisbio (PerkinElmer Norge AS, catalogue number 61GSTKLA) and reconstituted in water at a final concentration of 333 nM. White, non-binding, round bottom 384 well microplates (reference number 4513) were purchased from Corning (Corning Inc, Kennebunk, ME, USA). The compounds were serially diluted into DMSO to 12 different concentrations. Each of these compound-containing DMSO solutions was further diluted 33 times in assay buffer A (50 mM HEPES pH 7.5, 10 mM MgCl2, 1 mM ethylene glycol-bis(β-aminoethyl ether)-N,N,N′,N′-tetraacetic acid (EGTA) and 0.01% BRIJ-35) and 5 μL of these solutions were dispensed in triplicates in 384 well plate. […] Fluorescence measurements were made using a EnVision 2104 Multilabel reader, (PerkinElmer, US), excitation wavelength was set to 340 nm and emission was read at both 615 nm (8.5 nm bandwidth) and 665 nm (7.5 nm bandwidth) over […] between excitation and emission measurements.

FLT3-ITD mutant = FLT3-ITD mutant (Homo sapiens, UniProt P36888); format: binding; details: concentrations tested up to 10 μM
Experimental: as §2, §3

Rhodotrula sp. = assay: Antifungal growth inhibition assay; format: cell-based; details: positive control
Experimental: (§4) The yeast strains Candida albicans (ATCC 10231) and Rhodotrula sp. and the Aurobasidium pollulans mold, were cultivated on potato dextrose agar with 2% glucose at room temperature. Fungal spores were dissolved in potato dextrose broth (Difco Laboratories, USA) and the cell concentration was determined and adjusted after counting in a Bürker chamber. […] The assay plates were incubated in a moist dark chamber at 37 °C. […] Growth inhibition was determined microscopically after 42 h incubation.

Aurobasidium pollulans = assay: Antifungal growth inhibition assay; format: cell-based; details: positive control
Experimental: as §4

Row | SMILES | Activity at ≤50 µM (MV-4-11) | Activity at ≤50 µM (A2058) | Activity at ≤50 µM (HT29) | Activity at ≤50 µM (HaCat) | Activity at ≤50 µM (HepG2) | Activity at ≤50 µM (MDA-MB-468) | Activity at ≤50 µM (MOLT-4) | Activity at ≤50 µM (MRC5) | Activity at ≤50 µM (SK-BR-3) | Activity at ≤50 µM (THP-1) | Activity at ≤50 µM (MOLM-13) | also measured
1 | COC(=O)[C@@H](CCOc1c(Cl)cc(Br)cc1Br)[N+](C)(C)C [compound 2, purpuroine L] | I | I | I | I | I | I | I | I | I | I | I | 
2 | COC(=O)[C@@H](CCOc1c(Br)cc(Br)cc1Br)[N+](C)(C)C [compound 1, purpuroine K] | Active | I | I | I | I | I | I | I ^2 | I | I | Active | IC50 (MV-4-11; Homo sapiens, MV4-11, MV-4-11 cell line, read-out: IC50 against MV-4-11): 26 ± 1.2 µM; decrease of cells entering G2/M-phase (MV-4-11 cells [1]; 52 µM): 26%; decrease of cells entering the S-phase (MV-4-11 cells [1]; 52 µM): 23%; increase in the number of cells arrested in G0/G1 phase (MV-4-11 cells [1]; 52 µM): 11%; decrease of cells entering G2/M-phase (MV-4-11 cells [1]; 104 µM): 55%; decrease of cells entering the S-phase (MV-4-11 cells [1]; 104 µM): 38%; increase in the number of cells arrested in G0/G1 phase (MV-4-11 cells [1]; 104 µM): 19%; increase in percentage of apoptotic cells compared to control (MV-4-11 cells [2]): 94%; binding to FLT3 WT active site (FLT3 WT): does not bind; binding to FLT-ITD mutant active site (FLT3-ITD mutant): does not bind
3 | COC(=O)[C@@H](CCOc1c(Cl)cc(Br)cc1Cl)[N+](C)(C)C [compound 3, purpuroine M] | I | I | I | I | I | I | I | I | I | I | I | 
4 | C[C@@H]1[C@H](O)[C@@H](C)/C=C/C=C/C=C/C=C/C=C/C=C/C=C/[C@H](O[C@@H]2O[C@H](C)[C@@H](O)[C@H](N)[C@@H]2O)C[C@@H]2O[C@](O)(C[C@@H](O)C[C@@H](O)[C@H](O)CC[C@@H](O)C[C@@H](O)CC(=O)O[C@H]1C)C[C@H](O)[C@H]2C(=O)O [amphotericin-B] |  |  |  |  |  |  |  |  |  |  |  | MIC (Rhodotrula sp.): 8.7 µM (≈ 8.04 µg/mL); MIC (Aurobasidium pollulans): 8.7 µM (≈ 8.04 µg/mL)
